Drawing on patent US20260028336A1 (Arcus Biosciences, Inc., priority 2022, published 2026), this text covers EC50 and IC50 for 17 compounds.

Assay [1] concerns Jurkat cells. The assay can be described thus: IL-2 secretion assay in CD3/CD28-activated Jurkat cells (AlphaLISA). The class given is cell-based. Conditions: Homo sapiens, CD3/CD28 T Cell Activator, 24 h, IL-2 AlphaLISA. In short, it runs like this:
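Jurkat cells (50,000/well) were preincubated 1 h at 37° C with compound in a 16-point 1:2 series spanning 10 μM to 300 pM final. Cells were then activated with CD3/CD28 T cell activator, and secreted IL-2 was read by AlphaLISA. EC50 came from 4-parameter logistic fits.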
(Bead proximity is the source of the signal in Alpha formats.)

The target in assay [2] is T1, Cbl-b (Homo sapiens, UniProt Q13191).
T1 construct: biotin (biotinylated)
Kind of assay: Cbl-b probe displacement HTRF binding assay. Conditions: 0.4 nM biotinylated Cbl-b, 150 nM BODIPY probe. In short, it runs like this:
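Biotinylated Cbl-b was preincubated with compound for 60 min at room temperature in HEPES/NaCl/Triton/TCEP/BSA buffer. BODIPY probe was added for 15 min, followed by streptavidin-terbium, and the HTRF signal was read. Displacement was normalised to DMSO and no-protein controls, and affinity was obtained from a four-parameter dose-response fit.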
(Time-resolved FRET reads energy transfer from a long-lived donor to a nearby acceptor.)

Molecules are shown by their SMILES. Where only a bound is given, the exact number is not on record here.

T1 sequence (Q13191 whole entry, species assumed): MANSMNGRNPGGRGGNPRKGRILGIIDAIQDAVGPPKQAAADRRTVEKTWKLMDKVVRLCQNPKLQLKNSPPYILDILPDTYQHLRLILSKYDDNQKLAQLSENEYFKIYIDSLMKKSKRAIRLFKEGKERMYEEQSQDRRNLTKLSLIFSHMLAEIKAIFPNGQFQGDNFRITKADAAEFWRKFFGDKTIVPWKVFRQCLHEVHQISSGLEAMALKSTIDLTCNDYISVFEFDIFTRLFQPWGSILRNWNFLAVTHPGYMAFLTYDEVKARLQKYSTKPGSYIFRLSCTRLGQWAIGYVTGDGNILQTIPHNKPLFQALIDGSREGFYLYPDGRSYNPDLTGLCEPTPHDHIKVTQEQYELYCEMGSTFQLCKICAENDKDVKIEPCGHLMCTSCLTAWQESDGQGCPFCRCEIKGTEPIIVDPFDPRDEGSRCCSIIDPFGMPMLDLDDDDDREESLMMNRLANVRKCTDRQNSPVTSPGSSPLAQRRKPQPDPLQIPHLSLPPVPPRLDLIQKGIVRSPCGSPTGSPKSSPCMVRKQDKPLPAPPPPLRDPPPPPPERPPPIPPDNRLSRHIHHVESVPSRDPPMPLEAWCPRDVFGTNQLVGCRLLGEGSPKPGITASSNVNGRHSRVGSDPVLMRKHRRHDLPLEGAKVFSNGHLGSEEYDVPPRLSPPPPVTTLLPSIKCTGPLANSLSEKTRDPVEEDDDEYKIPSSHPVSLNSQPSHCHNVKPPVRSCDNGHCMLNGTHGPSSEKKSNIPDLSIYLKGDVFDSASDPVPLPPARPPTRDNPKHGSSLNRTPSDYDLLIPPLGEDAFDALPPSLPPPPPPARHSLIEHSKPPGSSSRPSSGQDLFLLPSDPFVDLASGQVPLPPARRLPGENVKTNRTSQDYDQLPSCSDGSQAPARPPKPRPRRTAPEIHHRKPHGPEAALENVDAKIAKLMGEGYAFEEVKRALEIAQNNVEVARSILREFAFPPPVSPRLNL

Broadly, the EC50 is the concentration at which the effect is half-maximal. Low values mean an effect from little substance, high ones a need for much substance. For orientation: IC50 means the point on the concentration scale where inhibition reaches its midpoint. Low values mean higher potency, high ones lower potency. Regarding `C[C@H]1CCCN(Cc2cc3c(C4CC4)cn(-c4cccc([C@]5(c6nncn6C)C[C@H](OC(F)F)C5)c4)c(=O)c3[nH]2)C1` [Example 95, trans-4-cyclopropyl-6-[3-[3-(difluoromethoxy)-1-(4-methyl-1,2,4-triazol-3-yl)cyclobutyl]phenyl]-2-[[(3S)-3-methylpiperidin-1-yl]methyl]-1H-pyrrolo[2,3-c]pyridin-7-one], in assay [1], the EC50 was < 100 nM. Further, in assay [2], the 50% inhibitory concentration (IC50) was < 100 nM.

Take `C[C@H]1CCCN(Cc2cc3c(C4CC4)cn(-c4cccc([C@]5(c6nncn6C)C[C@@H](OC(F)F)C5)c4)c(=O)c3[nH]2)C1` [Example 96, cis-4-cyclopropyl-6-[3-[3-(difluoromethoxy)-1-(4-methyl-1,2,4-triazol-3-yl)cyclobutyl]phenyl]-2-[[(3S)-3-methylpiperidin-1-yl]methyl]-1H-pyrrolo[2,3-c]pyridin-7-one]: in assay [1], the EC50 is < 100 nM. For the same compound, in assay [2], the concentration for half-maximal inhibition (IC50) was < 100 nM.

`C[C@H]1CCCN(Cc2cc3c(C4CC4)cn(-c4cccc([C@]5(c6nccn6C)C[C@H](OC(F)F)C5)c4)c(=O)c3[nH]2)C1` [Example 97, 4-cyclopropyl-6-[3-[3-(difluoromethoxy)-1-(1-methylimidazol-2-yl)cyclobutyl]phenyl]-2-[[(3S)-3-methylpiperidin-1-yl]methyl]-1H-pyrrolo[2,3-c]pyridin-7-one]: the EC50 in assay [1] lay within 100 to 1000 nM. Also, the IC50 in assay [2] is < 100 nM.

Consider `CCO[C@H]1C[C@](c2cccc(-n3cc(C4CC4)c4cc(CN5CCC[C@H](C)C5)[nH]c4c3=O)c2)(c2nncn2C)C1` [Example 98, trans-4-cyclopropyl-6-[3-[3-ethoxy-1-(4-methyl-1,2,4-triazol-3-yl)cyclobutyl]phenyl]-2-[[(3S)-3-methylpiperidin-1-yl]methyl]-1H-pyrrolo[2,3-c]pyridin-7-one], for which, in assay [1], the EC50 is < 100 nM. Also, the IC50 in assay [2] is < 100 nM.

As for `CO[C@H]1C[C@](c2cccc(-n3cc(C4CC4)c4cc(CN5CCC6(CC6)C5)[nH]c4c3=O)c2)(c2nncn2C)C1` [Example 100], the EC50 in assay [1] was 100 to 1000 nM. In addition, the IC50 in assay [2] is < 100 nM.

For `CO[C@H]1C[C@](c2cccc(-n3cc(C4CC4)c4cc(CN5CCC[C@H](C)C5)[nH]c4c3=O)c2)(c2nncn2C)C1` [Example 101, trans-4-cyclopropyl-6-[3-[3-methoxy-1-(4-methyl-1,2,4-triazol-3-yl)cyclobutyl]phenyl]-2-[[(3S)-3-methylpiperidin-1-yl]methyl]-1H-pyrrolo[2,3-c]pyridin-7-one], in assay [1], the EC50 was < 100 nM. The IC50 in assay [2] is < 100 nM.

With `CO[C@H]1C[C@@](c2cccc(-n3cc(C4CC4)c4cc(CN5CCC[C@H](C)C5)[nH]c4c3=O)c2)(c2nncn2C)C1` [Example 102, cis-4-cyclopropyl-6-[3-[3-methoxy-1-(4-methyl-1,2,4-triazol-3-yl)cyclobutyl]phenyl]-2-[[(3S)-3-methylpiperidin-1-yl]methyl]-1H-pyrrolo[2,3-c]pyridin-7-one], the EC50 in assay [1] is < 100 nM. The IC50 in assay [2] was < 100 nM.

For the compound `COC1CC(c2cccc(-n3cc(C4CC4)c4cc(CN5CCO[C@H](C)C5)[nH]c4c3=O)c2)(c2nncn2C)C1` (stereo partly drawn) [Example 103, 4-cyclopropyl-6-[3-[3-methoxy-1-(4-methyl-1,2,4-triazol-3-yl)cyclobutyl]phenyl]-2-[[(2R)-2-methylmorpholin-4-yl]methyl]-1H-pyrrolo[2,3-c]pyridin-7-one], the EC50 in assay [1] fell in the range of 100 to 1000 nM. Further, the IC50 in assay [2] was < 100 nM.

Consider `C[C@H]1CCCN(Cc2cc3c(C(F)(F)F)cn(-c4cccc(C5(c6nncn6C)CC6(CC6)C5)c4)c(=O)c3[nH]2)C1` [Example 105], for which, in assay [1], the EC50 was < 100 nM. Besides, in assay [2], the IC50 was < 100 nM.

As to `C[C@H]1CCCN(Cc2nc3c(C4CC4)cn(-c4cccc([C@]5(c6nncn6C)C[C@H](C)C5)c4)c(=O)c3[nH]2)C1` [Example 109, 7-cyclopropyl-5-[3-[3-methyl-1-(4-methyl-1,2,4-triazol-3-yl)cyclobutyl]phenyl]-2-[[(3S)-3-methylpiperidin-1-yl]methyl]-3H-imidazo[4,5-c]pyridin-4-one], the EC50 in assay [1] was < 100 nM. In addition, the IC50 in assay [2] was < 100 nM.

In assay [1], `C[C@@H]1CN(Cc2nc3c(C4CC4)cn(-c4cccc([C@]5(c6nncn6C)C[C@H](C)C5)c4)c(=O)c3[nH]2)CCO1` [Example 110, 7-cyclopropyl-5-[3-[3-methyl-1-(4-methyl-1,2,4-triazol-3-yl)cyclobutyl]phenyl]-2-[[(2R)-2-methylmorpholin-4-yl]methyl]-3H-imidazo[4,5-c]pyridin-4-one] returned a half-maximal effective concentration (EC50) of 100 to 1000 nM. Besides, the IC50 in assay [2] is < 100 nM.

As to `C[C@H]1CCCN(Cc2nc3c(C4CC4)cn(-c4cccc(C5(c6nncn6C)CC6(CC6)C5)c4)c(=O)c3[nH]2)C1` [Example 111, 7-cyclopropyl-2-[[(3S)-3-methylpiperidin-1-yl]methyl]-5-[3-[5-(4-methyl-1,2,4-triazol-3-yl)spiro[2.3]hexan-5-yl]phenyl]-3H-imidazo[4,5-c]pyridin-4-one], the EC50 in assay [1] is < 100 nM. Further, in assay [2], the 50% inhibitory concentration (IC50) was < 100 nM.

As to `C[C@H]1CCCN(Cc2nc3c(C4CC4)cn(-c4cccc(C5(c6nncn6C)CC(F)(F)C5)c4)c(=O)c3[nH]2)C1` [Example 112, 7-cyclopropyl-5-[3-[3,3-difluoro-1-(4-methyl-1,2,4-triazol-3-yl)cyclobutyl]phenyl]-2-[[(3S)-3-methylpiperidin-1-yl]methyl]-3H-imidazo[4,5-c]pyridin-4-one], the EC50 in assay [1] is < 100 nM. The IC50 in assay [2] is < 100 nM.

`C[C@H]1CCCN(Cc2nc3c(C(F)(F)F)cn(-c4cccc(C5(c6nncn6C)CC(F)(F)C5)c4)c(=O)c3[nH]2)C1` [Example 113, 5-[3-[3,3-difluoro-1-(4-methyl-1,2,4-triazol-3-yl)cyclobutyl]phenyl]-2-[[(3S)-3-methylpiperidin-1-yl]methyl]-7-(trifluoromethyl)-3H-imidazo[4,5-c]pyridin-4-one]: in assay [1], the EC50 was < 100 nM. The IC50 in assay [2] is < 100 nM.

Take `C[C@@H]1CN(Cc2nc3c(C(F)(F)F)cn(-c4cccc(C5(c6nncn6C)CC(F)(F)C5)c4)c(=O)c3[nH]2)CCO1` [Example 114, 5-[3-[3,3-difluoro-1-(4-methyl-1,2,4-triazol-3-yl)cyclobutyl]phenyl]-2-[[(2R)-2-methylmorpholin-4-yl]methyl]-7-(trifluoromethyl)-3H-imidazo[4,5-c]pyridin-4-one]: the EC50 in assay [1] was > 5000 nM. For the same compound, the 50% inhibitory concentration (IC50) in assay [2] was 100 to 1000 nM.

On to `Cn1cnnc1C1(c2cccc(-n3cc(C(F)(F)F)c4nc(CN5CCC(F)(F)C5)[nH]c4c3=O)c2)CC(F)(F)C1` [Example 115, 5-[3-[3,3-difluoro-1-(4-methyl-1,2,4-triazol-3-yl)cyclobutyl]phenyl]-2-[(3,3-difluoropyrrolidin-1-yl)methyl]-7-(trifluoromethyl)-3H-imidazo[4,5-c]pyridin-4-one], for which the EC50 in assay [1] was > 5000 nM. In assay [2], this compound returned an IC50 of 1000 to 5000 nM.

Consider `C[C@H]1CCCN(Cc2cc3ncn(-c4cccc(C5(c6nncn6C)CC(F)(F)C5)c4)c(=O)c3[nH]2)C1` [Example 120, 3-{3-[3,3-Difluoro-1-(4-methyl-4H-1,2,4-triazol-3-yl)cyclobutyl]phenyl}-6-{[(3S)-3-methylpiperidin-1-yl]methyl}-3H,4H,5H-pyrrolo[3,2-d]pyrimidin-4-one], for which, in assay [1], the EC50 lay within 100 to 1000 nM. Further, in assay [2], the IC50 is < 100 nM.
